Source: EPA's ToxValDB 9.5 (doi:10.2903/j.efsa.2015.4308)

Tests used:
Bibionidae = conditions: chronic/long-term
Hypoaspis aculeifer = conditions: chronic/long-term
Oryctolagus sp. = conditions: reproduction developmental; body weight
Canidae = conditions: chronic; duration: 1 years; oral; F; Dog Other; body weight
Folsomia candida = conditions: chronic/long-term
Daphnia magna = conditions: chronic/long-term; duration: 21 days; reproduction
Oncorhynchus mykiss = conditions: acute; duration: 96 hours; mortality
Pimephales promelas = conditions: chronic/long-term; duration: 34 days; growth
Aphidius rhopalosiphi = test: LR50; higher = less toxic; conditions: not reported; mortality
Typhlodromus pyri = test: LR50; higher = less toxic; conditions: not reported; mortality

[Br-].[Br-].c1cc[n+]2c(c1)-c1cccc[n+]1CC2 [Diquat dibromide]
NOEC (Bibionidae; duration: 20 days): 100 mg/kg
NOEC (Bibionidae; duration: 28 days): 1270 µg/L
NOEC (Hypoaspis aculeifer): 50 mg/kg
NOAEL (Oryctolagus sp.): 1 mg/kg-day
LD50 (Anas platyrhynchos; acute, oral, unspecified, mortality): 71 mg/kg-day
NOAEL (Anas platyrhynchos; reproductive): 0.5 mg/kg-day
NOAEL (Canidae): 0.5 mg/kg-day
NOEC (Folsomia candida): 9.38 mg/kg
NOEC (Daphnia magna): 125 µg/L
LD50 (Rattus norvegicus; acute, M, mortality): 214 mg/kg-day
NOAEL (Rattus norvegicus; chronic, duration: 2 years, ophthalmoscopic examination): 0.2 mg/kg-day
NOAEL (Rattus norvegicus; reproduction developmental): 0.2 mg/kg-day
LC50 (Oncorhynchus mykiss): 6.1 µg/mL
LC50 (Tagia sp.; acute, duration: 14 days, mortality): 94.3 mg/kg
NOEC (Tagia sp.; chronic/long-term, duration: 8 weeks): 37 mg/kg
NOEC (Pimephales promelas): 120 µg/L
LR50 (Aphidius rhopalosiphi): 3.2 g/ha
LR50 (Typhlodromus pyri): 2.9 g/ha
